Where a SMILES comes first, the peptide text is derived from it.
Experiments:
[1] = test system: E. coli ATCC 25922; assay type: cell-based, Escherichia coli; details: ATCC 25922
Method: (§1) Bacteria were grown overnight at 37° C. in Mueller-Hinton Broth (MHB; Sigma-Aldrich, St. Louis. MO, USA) in a shaking incubator and aliquoted into cryovials with a 50% glycerol solution in a 1:1 ratio. No additives were added to the MHB during the growth of bacterial isolates. Glycerol stocks were stored at −80° C.
(§2) The antimicrobial activity of the putative AMPs was determined by a broth microdilution assay as described by the Clinical and Laboratory Standards Institute, with the published adaptations for testing of cationic peptides. Escherichia coli 25922 and Staphylococcus aureus 29213 isolates were purchased from the American Type Culture Collection (ATCC; Manassas, VA, USA). A human clinical isolate of Salmonella enterica serovar Enteritidis was provided by the BC Centre for Disease Control. Bacteria from stocks stored at −80° C. were streaked onto nonselective Columbia blood agar with 5% sheep blood (Oxoid) and incubated overnight at 37° C. Next, 2-4 colonies were streaked onto a new agar plate to ensure uniform health of colonies used in the broth microdilution assay. Isolated colonies were suspended in MHB and the optical density was measured with a spectrophotometer to create an initial inoculum concentration of approximately 1×10^8 cfu/mL. The inoculum was diluted 1:250 to a final concentration of 2-8×10^5 cfu/mL, which was confirmed by performing a Total Viability Count (TVC). The TVC consisted of plating a 1:1000 dilution of the final inoculum on nonselective media and was also used to confirm the health and purity of the inoculum in each trial.
(§3) Lyophilized 80 μg peptide aliquots synthesized by GenScript (Piscataway, NJ, USA) were resuspended to 1.28 mg/mL with UltraPure water (Thermo Fisher Scientific, Waltham, MA, USA) and serially diluted in polypropylene 96-well microtiter plates (Greiner Bio-One #650261, Kremsmunster, Austria) from 128 down to 0.5 μg/mL. Two columns per plate were reserved for growth and sterility controls. Inoculum was added to the wells containing the peptide and the growth control. Plates were incubated for 20-24 h at 37° C. The minimum inhibitory concentration (MIC) was determined as the lowest peptide concentration where there was no visible bacterial growth.

[2] = test system: Salmonella enterica serovar Enteritidis (human clinical isolate); assay type: cell-based; details: serovar Enteritidis (human clinical isolate)
Method: as §1, §2, §3

[3] = test system: S. aureus ATCC 29213; assay type: cell-based, Staphylococcus aureus; details: ATCC 29213
Method: as §1, §2, §3

CC(C)[C@H](N)C(=O)N[C@@H](CCCCN)C(=O)N[C@@H](CS)C(=O)N[C@@H](CCCNC(=N)N)C(=O)N[C@H](C(=O)N[C@@H](CCCNC(=N)N)C(=O)N[C@@H](CCCNC(=N)N)C(=O)O)C(C)C [ApMe1, VKCRVRR] (H-VKCRVRR-OH; N-terminus and C-terminus assumed)
>128/>128/>128 ug/mL: MIC (ug/mL) E. coli [1] | MIC (ug/mL) S. Enteritidis [2] | MIC (ug/mL) S. aureus [3]

CC(C)C[C@H](NC(=O)[C@H](C)NC(=O)[C@@H](NC(=O)[C@H](CC(=O)O)NC(=O)[C@H](CCCNC(=N)N)NC(=O)[C@H](CCCCN)NC(=O)[C@H](Cc1ccccc1)NC(=O)[C@@H](NC(=O)[C@H](CCC(=O)O)NC(=O)[C@H](CCCCN)NC(=O)[C@H](Cc1c[nH]cn1)NC(=O)[C@H](C)NC(=O)CN)C(C)C)[C@@H](C)O)C(=O)N[C@H](C(=O)N[C@@H](CCCCN)C(=O)N[C@@H](CCC(=O)O)C(=O)N[C@@H](C)C(=O)N[C@@H](C)C(=O)N[C@@H](CCCCN)C(=O)N[C@@H](CCCCN)C(=O)N[C@@H](C)C(=O)N[C@@H](CCCCN)C(=O)N[C@@H](CCCCN)C(=O)O)[C@@H](C)O [ApMe2] (H-GAHKEVFKRDTALTKEAAKKAKK-OH; N-terminus and C-terminus assumed)
>128/>128/>128 ug/mL: MIC (ug/mL) E. coli [1] | MIC (ug/mL) S. Enteritidis [2] | MIC (ug/mL) S. aureus [3]

CC[C@H](C)[C@H](NC(=O)[C@H](CC(C)C)NC(=O)CNC(=O)[C@H](Cc1c[nH]c2ccccc12)NC(=O)CN)C(=O)N[C@@H](CC(N)=O)C(=O)N[C@H](C(=O)N[C@@H](CCCCN)C(=O)N[C@H](C(=O)N1CCC[C@H]1C(=O)N1CCC[C@H]1C(=O)N[C@H](C(=O)N[C@@H](CC(C)C)C(=O)N[C@@H](Cc1c[nH]cn1)C(=O)N[C@@H](CCCCN)C(=O)N[C@H](C(=O)N[C@@H](CO)C(=O)N[C@H](C(=O)N1CCC[C@H]1C(=O)N[C@@H](CC(C)C)C(=O)N[C@H](C(=O)N[C@@H](CO)C(=O)N[C@@H](CCCCN)C(=O)N[C@@H](CCCNC(=N)N)C(=O)O)C(C)C)C(C)C)C(C)C)C(C)C)[C@@H](C)CC)[C@@H](C)CC [ApMe3] (H-GWGLINIKIPPVLHKVSVPLVSKR-OH; N-terminus and C-terminus assumed)
>128/>128/>128 ug/mL: MIC (ug/mL) E. coli [1] | MIC (ug/mL) S. Enteritidis [2] | MIC (ug/mL) S. aureus [3]

CC[C@H](C)[C@H](NC(=O)[C@H](CC(C)C)NC(=O)[C@H](CO)NC(=O)[C@H](CCCCN)NC(=O)[C@H](CC(C)C)NC(=O)[C@@H](NC(=O)[C@H](Cc1ccc(O)cc1)NC(=O)[C@H](CCCNC(=N)N)NC(=O)[C@H](CCCNC(=N)N)NC(=O)[C@H](Cc1c[nH]cn1)NC(=O)[C@H](CCCNC(=N)N)NC(=O)[C@H](CCC(=O)O)NC(=O)[C@H](Cc1c[nH]cn1)NC(=O)[C@H](CCCNC(=N)N)NC(=O)[C@H](CC(C)C)NC(=O)[C@H](CCCCN)NC(=O)[C@@H](NC(=O)[C@H](Cc1c[nH]cn1)NC(=O)[C@H](Cc1c[nH]cn1)NC(=O)[C@H](Cc1c[nH]cn1)NC(=O)[C@@H](N)CCCCN)[C@@H](C)CC)[C@@H](C)CC)C(=O)O [ApMe4] (H-KHHHIKLRHERHRRYILKSLI-OH; N-terminus and C-terminus assumed)
>128/>128/>128 ug/mL: MIC (ug/mL) E. coli [1] | MIC (ug/mL) S. Enteritidis [2] | MIC (ug/mL) S. aureus [3]

CC[C@H](C)[C@H](NC(=O)[C@@H](N)CO)C(=O)N[C@@H](CC(C)C)C(=O)N[C@@H](CO)C(=O)N[C@H](C(=O)N[C@@H](CC(C)C)C(=O)N[C@@H](CO)C(=O)N[C@@H](Cc1c[nH]cn1)C(=O)N[C@@H](CCCCN)C(=O)N[C@@H](CCCNC(=N)N)C(=O)O)[C@@H](C)O [ApMe5, SILSTLSHKR] (H-SILSTLSHKR-OH; N-terminus and C-terminus assumed)
>128/>128/>128 ug/mL: MIC (ug/mL) E. coli [1] | MIC (ug/mL) S. Enteritidis [2] | MIC (ug/mL) S. aureus [3]

CC[C@H](C)[C@H](NC(=O)[C@H](CCCCN)NC(=O)[C@H](CCCNC(=N)N)NC(=O)[C@H](C)NC(=O)[C@@H](N)CCCNC(=N)N)C(=O)N[C@@H](CCCNC(=N)N)C(=O)N[C@@H](CCCNC(=N)N)C(=O)N[C@@H](CCCNC(=N)N)C(=O)N[C@@H](CCCNC(=N)N)C(=O)NCC(=O)N[C@@H](CO)C(=O)N[C@@H](CC(C)C)C(=O)N[C@@H](CCCNC(=N)N)C(=O)N[C@@H](Cc1c[nH]cn1)C(=O)N[C@@H](CS)C(=O)N[C@H](C(=O)N[C@H](C(=O)N[C@H](C(=O)N1CCC[C@H]1C(=O)N[C@@H](CO)C(=O)N[C@H](C(=O)N1CCC[C@H]1C(=O)N[C@@H](CO)C(=O)NCC(=O)N[C@@H](CCCNC(=N)N)C(=O)O)[C@@H](C)O)[C@@H](C)CC)[C@@H](C)O)C(C)C [ApMe6] (H-RARKIRRRRGSLRHCVTIPSTPSGR-OH; N-terminus and C-terminus assumed)
>128/>128/>128 ug/mL: MIC (ug/mL) E. coli [1] | MIC (ug/mL) S. Enteritidis [2] | MIC (ug/mL) S. aureus [3]

CC(C)[C@H](NC(=O)[C@H](CCCCN)NC(=O)CNC(=O)[C@H](C)NC(=O)CNC(=O)[C@H](C)NC(=O)[C@H](C)N)C(=O)N[C@H](C(=O)N[C@@H](CCCCN)C(=O)N[C@@H](CO)C(=O)N[C@@H](C)C(=O)N[C@@H](CCC(N)=O)C(=O)N[C@@H](CCCCN)C(=O)N[C@@H](C)C(=O)N[C@@H](CCC(N)=O)C(=O)N[C@@H](CCCCN)C(=O)N[C@@H](C)C(=O)N[C@@H](CCCCN)C(=O)O)[C@@H](C)O [BoAr1, AAGAGKVTKSAQKAQKAK] (H-AAGAGKVTKSAQKAQKAK-OH; N-terminus and C-terminus assumed)
>128/>128/>128 ug/mL: MIC (ug/mL) E. coli [1] | MIC (ug/mL) S. Enteritidis [2] | MIC (ug/mL) S. aureus [3]

CC[C@H](C)[C@H](NC(=O)[C@H](CCCCN)NC(=O)[C@H](CC(C)C)NC(=O)[C@H](Cc1c[nH]c2ccccc12)NC(=O)[C@@H]1CCCN1C(=O)[C@H](Cc1c[nH]cn1)NC(=O)[C@H](CCCCN)NC(=O)[C@H](CC(C)C)NC(=O)[C@H](CS)NC(=O)[C@H](CCC(=O)O)NC(=O)[C@H](C)NC(=O)[C@H](C)NC(=O)[C@@H](NC(=O)[C@H](C)N)[C@@H](C)O)C(=O)N[C@@H](CCCCN)C(=O)N[C@@H](CCCCN)C(=O)O [BoAr2, ATAAECLKHPWLKIKK] (H-ATAAECLKHPWLKIKK-OH; N-terminus and C-terminus assumed)
>128/>128/>128 ug/mL: MIC (ug/mL) E. coli [1] | MIC (ug/mL) S. Enteritidis [2] | MIC (ug/mL) S. aureus [3]

CC[C@H](C)[C@H](N)C(=O)N[C@H](C(=O)N[C@@H](CCCNC(=N)N)C(=O)N[C@@H](C)C(=O)N[C@H](C(=O)N[C@@H](C)C(=O)N[C@@H](C)C(=O)N[C@@H](CCC(=O)O)C(=O)N[C@@H](CS)C(=O)N[C@@H](CC(C)C)C(=O)N[C@@H](CCCCN)C(=O)N[C@@H](Cc1c[nH]cn1)C(=O)N1CCC[C@H]1C(=O)N[C@@H](Cc1c[nH]c2ccccc12)C(=O)N[C@@H](CC(C)C)C(=O)N[C@@H](CCCCN)C(=O)N[C@H](C(=O)N[C@@H](CCCCN)C(=O)N[C@@H](CCCCN)C(=O)O)[C@@H](C)CC)[C@@H](C)O)[C@@H](C)CC [BoAr3, IIRATAAECLKHPWLKIKK] (H-IIRATAAECLKHPWLKIKK-OH; N-terminus and C-terminus assumed)
>128/>128/>128 ug/mL: MIC (ug/mL) E. coli [1] | MIC (ug/mL) S. Enteritidis [2] | MIC (ug/mL) S. aureus [3]

CC(C)C[C@H](NC(=O)[C@H](CO)NC(=O)[C@H](C)NC(=O)[C@@H](NC(=O)[C@@H](N)CO)C(C)C)C(=O)N[C@@H](C)C(=O)N[C@@H](CCCCN)C(=O)N[C@@H](CC(N)=O)C(=O)N[C@@H](CO)C(=O)N[C@@H](C)C(=O)N[C@@H](Cc1c[nH]c2ccccc12)C(=O)N1CCC[C@H]1C(=O)N[C@H](C(=O)N[C@@H](CO)C(=O)N[C@@H](CC(C)C)C(=O)N[C@@H](CCCCN)C(=O)N[C@@H](CCCNC(=N)N)C(=O)O)C(C)C [BoAr4, SVASLAKNSAWPVSLKR] (H-SVASLAKNSAWPVSLKR-OH; N-terminus and C-terminus assumed)
>128/>128/>128 ug/mL: MIC (ug/mL) E. coli [1] | MIC (ug/mL) S. Enteritidis [2] | MIC (ug/mL) S. aureus [3]

Source: patent US20260242416A1, “ANTIMICROBIAL PEPTIDES” (priority 2023, published 2026)
